Reference: ChEMBL document CHEMBL6134910, “Discovery of a New Class of Orexin 2 Receptor Agonists as a Potential Treatment for Narcolepsy” (J Med Chem, 2025)
pEC50, pIC50: −log10 of the molar value.

Molecular target: T1, Orexin receptor type 2 (Homo sapiens, UniProt O43614)
T1 sequence (O43614 whole entry): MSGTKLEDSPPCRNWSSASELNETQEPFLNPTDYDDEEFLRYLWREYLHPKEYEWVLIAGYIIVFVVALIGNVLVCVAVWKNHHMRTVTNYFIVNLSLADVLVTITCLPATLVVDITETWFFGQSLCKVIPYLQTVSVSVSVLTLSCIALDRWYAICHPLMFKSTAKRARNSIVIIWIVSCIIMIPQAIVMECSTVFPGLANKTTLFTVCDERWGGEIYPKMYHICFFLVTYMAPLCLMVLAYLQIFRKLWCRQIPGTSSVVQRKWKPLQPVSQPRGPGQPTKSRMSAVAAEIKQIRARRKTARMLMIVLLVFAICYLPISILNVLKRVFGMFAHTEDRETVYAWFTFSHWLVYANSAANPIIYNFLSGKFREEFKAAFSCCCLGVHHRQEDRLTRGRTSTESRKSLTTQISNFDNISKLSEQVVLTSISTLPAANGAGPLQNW
Test: Agonist activity at human OX2 receptor expressed in HEK293 cells assessed as IP-1 accumulation incubated for […] by HTRF IP-one Gq detection assay
Format: functional, cell-based

**Q.** How did the pEC50 turn out when `Cn1ncc(CC(=O)N(C2CCCC2)C(C(=O)NC23CC(C)(C2)C3)C2CCCC2)c1-c1ccccc1` (centres undefined) was run?
**A.** The pEC50 was < 4.70.

Molecular target: Cytochrome P450 2D6 (Homo sapiens, UniProt P10635)
Test: Inhibition of CYP2D6 in human liver microsome using dextrometorphan as substrate incubated for 30 mins by LC-MS/MS analysis
Format: ADME, microsomes

Chain of Cytochrome P450 2D6 (P10635 whole entry): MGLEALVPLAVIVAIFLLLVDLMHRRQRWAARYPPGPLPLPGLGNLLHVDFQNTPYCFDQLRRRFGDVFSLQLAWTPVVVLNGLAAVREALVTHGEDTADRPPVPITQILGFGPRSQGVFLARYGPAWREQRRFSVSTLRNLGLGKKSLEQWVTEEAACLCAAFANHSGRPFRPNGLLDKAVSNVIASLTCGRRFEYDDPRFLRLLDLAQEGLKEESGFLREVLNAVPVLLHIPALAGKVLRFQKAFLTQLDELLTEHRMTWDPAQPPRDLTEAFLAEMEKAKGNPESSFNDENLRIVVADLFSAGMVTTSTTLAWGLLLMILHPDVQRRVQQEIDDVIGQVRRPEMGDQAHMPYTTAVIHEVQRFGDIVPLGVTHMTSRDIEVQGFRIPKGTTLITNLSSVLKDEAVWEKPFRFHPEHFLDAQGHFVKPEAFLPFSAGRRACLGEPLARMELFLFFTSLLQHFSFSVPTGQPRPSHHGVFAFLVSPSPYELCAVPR

**Q.** `Cn1nnc(-c2c(CC(=O)N(C3CC4(CC4)C3)[C@@H](C(=O)NC34CC(C)(C3)C4)c3ccccc3Cl)cnn2C)n1` was tested. Which pIC50 did it give?
**A.** Its pIC50 is 5.28.

**Q.** `Cn1nnc(-c2oncc2CC(=O)N(C2CC3(CC3)C2)[C@@H](C(=O)NC23CC(C)(C2)C3)c2cc(F)ccc2F)n1` was tested. Which pIC50 did it give?
**A.** The pIC50 was 4.70.

Molecular target: Cytochrome P450 3A4 (Homo sapiens, UniProt P08684)
Test: Inhibition of CYP3A4 in human liver microsome using testosterone as substrate incubated for 7 mins
Format: ADME, microsomes

Chain of Cytochrome P450 3A4 (P08684 whole entry): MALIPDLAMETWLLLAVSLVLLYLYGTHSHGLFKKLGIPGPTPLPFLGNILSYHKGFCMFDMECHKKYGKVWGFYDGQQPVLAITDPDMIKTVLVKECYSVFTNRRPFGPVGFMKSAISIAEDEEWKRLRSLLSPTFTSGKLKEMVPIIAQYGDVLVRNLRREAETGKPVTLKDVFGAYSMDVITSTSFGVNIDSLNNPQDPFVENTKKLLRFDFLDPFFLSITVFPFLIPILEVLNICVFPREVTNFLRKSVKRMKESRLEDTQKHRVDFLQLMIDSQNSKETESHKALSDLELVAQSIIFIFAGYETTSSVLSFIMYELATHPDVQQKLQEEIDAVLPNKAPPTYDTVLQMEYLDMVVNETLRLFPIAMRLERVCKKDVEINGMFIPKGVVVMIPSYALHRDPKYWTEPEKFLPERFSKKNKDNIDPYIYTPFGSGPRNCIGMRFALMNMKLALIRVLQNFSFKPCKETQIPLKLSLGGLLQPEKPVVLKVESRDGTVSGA

**Q.** How did the pIC50 turn out when `CC12CC(NC(=O)[C@@H](c3ccccc3)N(C(=O)Cc3cnoc3-c3ccccc3)C3CCCC3)(C1)C2` was run?
**A.** The pIC50 was 5.72.

**Q.** `O=C(NC1CCCCC1)[C@@H](c1ccccc1)N(C[C@H]1CCCO1)C(=O)Cn1cnc2ccccc21` was tested. Which pIC50 did it give?
**A.** Its pIC50 is 5.00.

**Q.** How did the pIC50 turn out when `Cn1ncc(CC(=O)N(C2CCCC2)[C@@H](C(=O)NC23CC(C)(C2)C3)c2ccccc2)c1-n1nccn1` was run?
**A.** Its pIC50 is 5.40.

**Q.** `Cn1ncc(CC(=O)N(C2CCCC2)[C@@H](C(=O)NC23CC(C)(C2)C3)c2ccccc2)c1-c1cccnc1` was tested. Which pIC50 did it give?
**A.** The pIC50 was 5.12.

**Q.** `O=C(NC1CCCCC1)[C@@H](c1ccccc1)N(C[C@H]1CCCO1)C(=O)Cn1cncc1-c1ccccc1` was tested. Which pIC50 did it give?
**A.** The pIC50 was 6.60.

**Q.** With `Cc1nsc(CC(=O)N(C2CCCC2)[C@@H](C(=O)NC23CC(C)(C2)C3)c2ccccc2)c1-c1ccccc1` as the molecule, how does the pIC50 read?
**A.** The pIC50 was 5.85.

**Q.** `Cn1ncc(CC(=O)N(C2CCCC2)C(C(=O)NC23CC(C)(C2)C3)c2ccccc2)c1-c1ncccn1` (centres undefined) was tested. Which pIC50 did it give?
**A.** Its pIC50 is 5.17.

**Q.** How did the pIC50 turn out when `Cn1ccc(-c2c(CC(=O)N(C3CCCC3)C(C(=O)NC34CC(C)(C3)C4)c3ccccc3)cnn2C)n1` (centres undefined) was run?
**A.** Its pIC50 is 5.60.

**Q.** With `CC(C)N(C(=O)Cc1cnn(C)c1-c1ccccc1)[C@@H](c1cn(C23CC(C)(C2)C3)nn1)c1cc(F)ccc1F` as the molecule, how does the pIC50 read?
**A.** The pIC50 was 6.00.

**Q.** `Cn1ncc(CC(=O)N(C2CCCC2)[C@@H](C(=O)NC23CC(C)(C2)C3)c2ccccc2)c1-c1ccccc1` was tested. Which pIC50 did it give?
**A.** Its pIC50 is 5.30.

**Q.** How did the pIC50 turn out when `Cn1ncc(CC(=O)N(C2CCCC2)C(C(=O)NC23CC(C)(C2)C3)c2ccccc2)c1-c1coc(C2CC2)n1` (centres undefined) was run?
**A.** Its pIC50 is 5.38.

**Q.** How did the pIC50 turn out when `Cn1ncc(CC(=O)N(C2CCCC2)C(C(=O)NC23CC(C)(C2)C3)c2ccccc2)c1-c1ccc(F)cc1F` (centres undefined) was run?
**A.** The pIC50 was 5.80.

**Q.** With `COc1cccc(-c2c(CC(=O)N(C3CCCC3)C(C(=O)NC34CC(C)(C3)C4)c3ccccc3)cnn2C)c1F` (centres undefined) as the molecule, how does the pIC50 read?
**A.** Its pIC50 is 6.05.

**Q.** How did the pIC50 turn out when `COc1cccc(-c2c(CC(=O)N(C3CCCC3)C(C(=O)NC34CC(C)(C3)C4)c3ccccc3)cnn2C)c1` (centres undefined) was run?
**A.** The pIC50 was 5.82.

**Q.** With `Cn1nnc(-c2c(CC(=O)N(C3CCCC3)C(C(=O)NC34CC(C)(C3)C4)c3ccccc3)cnn2C)n1` (centres undefined) as the molecule, how does the pIC50 read?
**A.** The pIC50 was 4.92.

**Q.** `Cc1ncn(CC(=O)N(C2CCCC2)[C@@H](C(=O)NC23CC(C)(C2)C3)c2ccccc2)c1-c1ccccc1` was tested. Which pIC50 did it give?
**A.** Its pIC50 is 5.14.

**Q.** How did the pIC50 turn out when `Cc1ncn(CC(=O)N(C[C@H]2CCCO2)[C@@H](C(=O)NC2CCCCC2)c2ccccc2)c1-c1ccccc1` was run?
**A.** The pIC50 was 5.14.

**Q.** With `CC12CC(NC(=O)[C@@H](c3ccccc3)N(C(=O)Cc3cnn(C(F)F)c3-c3ccccc3)C3CCCC3)(C1)C2` as the molecule, how does the pIC50 read?
**A.** The pIC50 was 5.70.

**Q.** `CC12CC(NC(=O)[C@@H](c3ccccc3)N(C(=O)Cn3cnc(Cl)c3-c3ccccc3)C3CCCC3)(C1)C2` was tested. Which pIC50 did it give?
**A.** Its pIC50 is 4.74.

**Q.** `Cn1ncc(CC(=O)N(C2CCCC2)C(C(=O)NC23CC(C)(C2)C3)c2ccccc2)c1-c1c(F)cccc1F` (centres undefined) was tested. Which pIC50 did it give?
**A.** Its pIC50 is 5.15.

**Q.** With `CC12CC(NC(=O)[C@@H](c3ccccc3)N(C(=O)Cc3cnnn3-c3ccccc3)C3CCCC3)(C1)C2` as the molecule, how does the pIC50 read?
**A.** The pIC50 was 5.80.

**Q.** With `CC(C)N(C(=O)Cc1cnn(C)c1-c1ccccc1)[C@@H](C(=O)NC12CC(C)(C1)C2)c1cc(F)ccc1F` as the molecule, how does the pIC50 read?
**A.** The pIC50 was 6.52.

Molecular target: Cytochrome P450 2C9 (Homo sapiens, UniProt P11712)
Test: Inhibition of CYP2C9 in human liver microsome using diclofenac as substrate incubated for 6 mins by LC-MS/MS analysis
Format: ADME, microsomes

Chain of Cytochrome P450 2C9 (P11712 whole entry): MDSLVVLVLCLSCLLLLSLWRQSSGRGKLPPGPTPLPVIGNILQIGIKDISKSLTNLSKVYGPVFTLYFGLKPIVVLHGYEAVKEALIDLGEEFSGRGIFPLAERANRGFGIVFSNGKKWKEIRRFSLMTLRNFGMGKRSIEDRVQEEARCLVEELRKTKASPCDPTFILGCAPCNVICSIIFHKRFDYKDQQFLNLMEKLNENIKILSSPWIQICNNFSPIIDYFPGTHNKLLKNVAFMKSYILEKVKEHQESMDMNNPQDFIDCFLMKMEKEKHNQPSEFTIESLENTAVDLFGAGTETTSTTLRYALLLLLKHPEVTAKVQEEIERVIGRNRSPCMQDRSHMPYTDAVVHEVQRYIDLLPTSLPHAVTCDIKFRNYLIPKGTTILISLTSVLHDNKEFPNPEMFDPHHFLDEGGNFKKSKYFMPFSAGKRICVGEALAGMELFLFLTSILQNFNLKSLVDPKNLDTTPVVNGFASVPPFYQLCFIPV

**Q.** With `Cn1nnc(-c2c(CC(=O)N(C3CC4(CC4)C3)[C@@H](C(=O)NC34CC(C)(C3)C4)c3ccccc3Cl)cnn2C)n1` as the molecule, how does the pIC50 read?
**A.** The pIC50 was 4.70.

**Q.** With `Cn1nnc(-c2oncc2CC(=O)N(C2CC3(CC3)C2)[C@@H](C(=O)NC23CC(C)(C2)C3)c2cc(F)ccc2F)n1` as the molecule, how does the pIC50 read?
**A.** The pIC50 was 4.62.

Molecular target: T2, Orexin/Hypocretin receptor type 1 (Homo sapiens, UniProt O43613)
T2 sequence (O43613 whole entry): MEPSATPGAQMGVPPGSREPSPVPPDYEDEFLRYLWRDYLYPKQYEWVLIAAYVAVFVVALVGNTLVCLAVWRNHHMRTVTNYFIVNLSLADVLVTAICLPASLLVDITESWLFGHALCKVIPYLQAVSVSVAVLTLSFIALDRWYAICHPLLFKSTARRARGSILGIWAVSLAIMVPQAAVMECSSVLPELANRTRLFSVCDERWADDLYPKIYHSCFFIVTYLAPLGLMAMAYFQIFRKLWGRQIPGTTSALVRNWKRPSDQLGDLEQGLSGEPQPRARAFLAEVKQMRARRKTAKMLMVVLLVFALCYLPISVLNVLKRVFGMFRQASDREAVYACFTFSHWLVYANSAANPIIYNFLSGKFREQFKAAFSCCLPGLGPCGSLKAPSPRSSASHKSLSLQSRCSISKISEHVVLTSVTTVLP
Test: Agonist activity at human OX1 receptor expressed in HEK293 cells assessed as IP-1 accumulation incubated for […] by HTRF IP-one Gq detection assay
Format: functional, cell-based

**Q.** How did the pEC50 turn out when `Cn1nnc(-c2c(CC(=O)N(C3CC4(CC4)C3)[C@@H](C(=O)NC34CC(C)(C3)C4)c3ccccc3Cl)cnn2C)n1` was run?
**A.** Its pEC50 is < 4.70.

**Q.** How did the pEC50 turn out when `Cn1nnc(-c2oncc2CC(=O)N(C2CC3(CC3)C2)[C@@H](C(=O)NC23CC(C)(C2)C3)c2cc(F)ccc2F)n1` was run?
**A.** Its pEC50 is < 4.70.
